Test results reported in patent US20230092890A1, “1, 3, 4-Oxadiazole derivative compounds as histone deacetylase 6 inhibitor, and the pharmaceutical composition comprising the same” (Chong Kun Dang Pharmaceutical Corp., priority 2019, published 2023).
Where two headings read alike, the source gives them in different places.

Columns and labels:
HDAC6 human recombinant = target: T1, HDAC6 human recombinant (Homo sapiens, UniProt Q9UBN7); assay: HDAC enzyme activity inhibition (in vitro), HDAC6 assay; format: biochemical
T1 construct: purchased Calbiochem 382180
T1 sequence (Q9UBN7 1-1215): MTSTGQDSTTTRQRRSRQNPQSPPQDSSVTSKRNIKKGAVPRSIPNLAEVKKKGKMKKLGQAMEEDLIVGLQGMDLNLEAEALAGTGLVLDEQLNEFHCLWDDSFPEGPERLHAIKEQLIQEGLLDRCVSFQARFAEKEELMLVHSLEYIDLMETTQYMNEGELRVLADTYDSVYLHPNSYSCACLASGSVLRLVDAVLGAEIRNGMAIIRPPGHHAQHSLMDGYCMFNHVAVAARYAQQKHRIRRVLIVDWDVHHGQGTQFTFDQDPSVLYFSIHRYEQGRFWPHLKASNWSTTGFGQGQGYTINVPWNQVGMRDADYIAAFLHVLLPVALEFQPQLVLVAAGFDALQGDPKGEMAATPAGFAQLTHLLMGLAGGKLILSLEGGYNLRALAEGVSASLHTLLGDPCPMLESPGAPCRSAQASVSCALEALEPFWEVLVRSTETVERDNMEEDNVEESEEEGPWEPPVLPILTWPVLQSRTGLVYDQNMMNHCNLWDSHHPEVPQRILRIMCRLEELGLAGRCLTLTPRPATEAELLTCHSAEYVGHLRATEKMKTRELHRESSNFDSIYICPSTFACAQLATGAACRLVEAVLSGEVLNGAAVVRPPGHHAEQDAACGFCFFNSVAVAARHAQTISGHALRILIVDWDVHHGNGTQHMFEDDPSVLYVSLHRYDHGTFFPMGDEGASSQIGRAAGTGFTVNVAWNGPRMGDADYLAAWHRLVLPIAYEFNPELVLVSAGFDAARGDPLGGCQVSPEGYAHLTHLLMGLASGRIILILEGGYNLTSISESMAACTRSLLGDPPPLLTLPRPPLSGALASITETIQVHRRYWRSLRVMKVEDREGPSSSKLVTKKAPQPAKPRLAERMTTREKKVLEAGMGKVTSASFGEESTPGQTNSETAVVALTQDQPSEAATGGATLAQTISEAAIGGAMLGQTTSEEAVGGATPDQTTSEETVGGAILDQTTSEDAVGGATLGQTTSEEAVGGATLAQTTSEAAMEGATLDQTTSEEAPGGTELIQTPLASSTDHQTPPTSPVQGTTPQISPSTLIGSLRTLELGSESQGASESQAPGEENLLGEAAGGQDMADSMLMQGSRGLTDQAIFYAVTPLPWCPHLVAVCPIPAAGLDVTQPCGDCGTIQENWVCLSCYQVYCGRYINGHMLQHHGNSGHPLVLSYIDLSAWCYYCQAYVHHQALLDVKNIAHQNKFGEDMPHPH
How it was run: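 HDAC6 human recombinant enzyme with fluorimetric substrate; […]. Reaction 60 min at 37° C, then developer 30 min at 37° C; fluorescence read at Ex 390/Em 460.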

HDAC1 = target: T2, HDAC1 (Homo sapiens, UniProt Q13547); assay: HDAC enzyme activity inhibition (in vitro), HDAC1 Fluorimetric Drug Discovery Assay Kit; format: biochemical
T2 construct: purchased Enzolifesciences BML-AK511
How it was run: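 Compound incubated with enzyme 60 min at 37° C, then developer 30 min at 37° C; fluorescence read at Ex 390/Em 460. HDAC1 via fluorimetric kit, compounds at 100, 1000 and 10000 nM; HDAC6 human recombinant, compounds at 0.1, 1, 10, 100 and 1000 nM.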

[1] = samples at 0.1, 1, 10, 100 and 1000 nM, 37° C. 60 minutes, fluorescence Ex 390, Em 460, read-out: HDAC6 IC50
[2] = samples at 100, 1000 and 10000 nM, 37° C. 60 minutes, fluorescence Ex 390, Em 460, read-out: HDAC1 IC50

T2 sequence (Q13547 whole entry): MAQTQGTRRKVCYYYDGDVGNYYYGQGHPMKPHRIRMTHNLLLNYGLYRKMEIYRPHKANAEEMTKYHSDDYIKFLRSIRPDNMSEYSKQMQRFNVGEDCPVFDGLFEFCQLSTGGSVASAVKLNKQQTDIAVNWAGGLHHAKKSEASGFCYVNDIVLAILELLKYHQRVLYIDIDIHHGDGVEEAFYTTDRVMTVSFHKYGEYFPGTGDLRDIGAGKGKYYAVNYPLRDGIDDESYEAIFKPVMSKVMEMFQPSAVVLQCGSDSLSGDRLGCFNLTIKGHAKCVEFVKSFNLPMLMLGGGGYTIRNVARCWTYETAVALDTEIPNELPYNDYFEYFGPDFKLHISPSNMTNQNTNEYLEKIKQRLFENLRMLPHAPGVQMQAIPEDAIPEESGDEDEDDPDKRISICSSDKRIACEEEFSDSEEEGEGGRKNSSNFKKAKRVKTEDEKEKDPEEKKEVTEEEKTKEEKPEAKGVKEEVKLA

IC50 (HDAC6 human recombinant; [1]) | IC50 (HDAC1; [2]) | Compound | IC50 (HDAC6 human recombinant) | IC50 (HDAC1)
53 nM | > 10000 nM | CN1CCC(c2ccc3c(c2)oc(=O)n3Cc2ccc(-c3nnc(C(F)F)o3)cn2)CC1 [Compound 309, 3-((5-(5-(difluoromethyl)-1,3,4-oxadiazole-2-yl)pyridine-2-yl)methyl)-6-(1-methylpiperidine-4-yl)benzo[d]oxazole-2(3H)-one] |  | 
70 nM | > 10000 nM | O=c1n(Cc2ccc(-c3nnc(C(F)F)o3)cc2F)c2cc(F)ccc2n1C1CCN(C2CCC2)CC1 [Compound 74, 1-(1-cyclobutylpiperidine-4-yl)-3-(4-(5-(difluoromethyl)-1,3,4-oxadiazole-2-yl)-2-fluorobenzyl)-5-fluoro-1,3-dihydro-2H-benzo[d]imidazole-2-one] |  | 
32 nM | > 10000 nM | Cn1ccc2cc(-c3cc4c(cc3F)n(Cc3ccc(-c5nnc(C(F)F)o5)cn3)c(=O)n4C)ccc21 [Compound 227, 1-((5-(5-(difluoromethyl)-1,3,4-oxadiazole-2-yl)pyridine-2-yl)methyl)-6-fluoro-3-methy 1-5-(1-methyl-1H-indole-5-yl)-1,3-dihydro-2H-benzo[d]imidazole-2-one] |  | 
173 nM | > 10000 nM | CC(C)(C)C(=O)Nc1ccc2c(c1)n(Cc1ccccc1)c(=O)n2Cc1ccc(-c2nnc(C(F)F)o2)cn1 [Compound 207, N-(3-benzyl-1-((5-(5-(difluoromethyl)-1,3,4-oxadiazole-2-yl)pyridine-2-yl)methyl)-2-oxo-2,3-dihydro-1H-benzo[d]imidazole-5-yl)pivalamide] |  | 
174 nM | > 10000 nM | CN1CCC(n2c(=O)n(Cc3ccc(-c4nnc(C(F)F)o4)cn3)c3ncccc32)CC1 [Compound 107, 3-((5-(5-(difluoromethyl)-1,3,4-oxadiazole-2-yl)pyridine-2-yl)methyl)-1-(1-methylpiperidine-4-yl)-1,3-dihydro-2H-imidazo[4,5-b]pyridine-2-one] |  | 
19 nM | > 10000 nM | CN1CCC(n2c(=O)n(Cc3ccc(-c4nnc(C(F)F)o4)cn3)c3ccc(-c4ccoc4)cc32)CC1 [Compound 137, 1-((5-(5-(difluoromethyl)-1,3,4-oxadiazole-2-yl)pyridine-2-yl)methyl)-5-(furan-3-yl)-3-(1-methylpiperidine-4-yl)-1,3-dihydro-2H-benzo[d]imidazole-2-one] |  | 
49 nM | > 10000 nM | CN1CCC(n2c(=O)n(Cc3ccc(-c4nnc(C(F)F)o4)cn3)c3cc(F)c(F)cc32)CC1 [Compound 83, 1-((5-(5-(difluoromethyl)-1,3,4-oxadiazole-2-yl)pyridine-2-yl)methyl)-5,6-difluoro-3-(1-methylpiperidine-4-yl)-1,3-dihydro-2H-benzo[d]imidazole-2-one] |  | 
37 nM | > 10000 nM | O=c1n(Cc2ccc(-c3nnc(C(F)F)o3)cn2)c2cc(F)ccc2n1C1CCN(C2COC2)CC1 [Compound 53, 3-((5-(5-(difluoromethyl)-1,3,4-oxadiazole-2-yl)pyridine-2-yl)methyl)-5-fluoro-1-(1-(oxetan-3-yl)piperidine-4-yl)-1,3-dihydro-2H-benzo[d]imidazole-2-one] |  | 
 |  | CC(=O)N1CCC(N2CCC(n3c(=O)n(Cc4ccc(-c5nnc(C(F)F)o5)cn4)c4cc(F)ccc43)CC2)CC1 [Compound 59, 1-(1′-acetyl-[1,4′-bipiperidine]-4-yl)-3-((5-(5-(difluoromethyl)-1,3,4-oxadiazole-2-yl)pyridine-2-yl)methyl)-5-fluoro-1,3-dihydro-2H-benzo[d]imidazole-2-one] | 38 nM | > 10000 nM
18 nM | > 10000 nM | O=c1n(Cc2ccc(-c3nnc(C(F)F)o3)cn2)c2ccc(-c3cccnc3)cc2n1C1CCN(C2COC2)CC1 [Compound 280, 1-((5-(5-(difluoromethyl)-1,3,4-oxadiazole-2-yl)pyridine-2-yl)methyl)-3-(1-(oxetan-3-yl)piperidine-4-yl)-5-(pyridine-3-yl)-1,3-dihydro-2H-benzo[d]imidazole-2-one] |  | 
